Holding throughout (assay type): in vivo
Experiment [1] deals with Plutella xylostella (Diamondback Moth). Put plainly: Example B14: activity against Plutella xylostella (diamondback moth), 96-well artificial diet. The conditions noted are these: 216 h, application rate 500 ppm, 9 days after infestation. As for the experimental part:
Example B14: Activity Against Plutella xylostella (Diamondback Moth)
96-well microtiter plates containing artificial diet were treated with aqueous test solutions, prepared from 10,000 ppm DMSO stock solutions, by a liquid handling robot. After drying, eggs (30 per well) were infested onto a netted lid which was suspended above the diet. The eggs hatch and L1 larvae move down to the diet. The samples were assessed for mortality 9 days after infestation.
The following compounds gave an effect of at least 80% average mortality at an application rate of 500 ppm: […]

Experiment [2] concerns Diabrotica Balteata (Corn Root Worm). Description: Example B1: Diabrotica balteata (corn root worm), maize sprouts sprayed, L2 larvae. The conditions noted are these: 96 h, application rate 200 ppm, 4 days after infestation, read-out: effect in at least one of the two categories (mortality or growth inhibition). As for the experimental part:
Example B1: Diabrotica Balteata (Corn Root Worm)
Maize sprouts placed onto an agar layer in 24-well microtiter plates were treated with aqueous test solutions prepared from 10,000 ppm DMSO stock solutions by spraying. After drying, the plates were infested with L2 larvae (6 to 10 per well). The samples were assessed for mortality and growth inhibition in comparison to untreated samples 4 days after infestation.
The following compounds gave an effect of at least 80% in at least one of the two categories (mortality or growth inhibition) at an application rate of 200 ppm: […]

The test system of experiment [3] is Plutella xylostella (Diamond Back Moth). Description: Example B5: Plutella xylostella (diamond back moth), artificial diet, 24-well, eggs. To be noted: 192 h, application rate 200 ppm, 8 days after infestation, read-out: effect in at least one of the two categories (mortality or growth inhibition). As for the experimental part: Example B5: Plutella xylostella (Diamond Back Moth)
24-well microtiter plates with artificial diet were treated with aqueous test solutions prepared from 10,000 ppm DMSO stock solutions by pipetting. After drying, Plutella eggs were pipetted through a plastic stencil onto a gel blotting paper and the plate was closed with it. The samples were assessed for mortality and growth inhibition in comparison to untreated samples 8 days after infestation. The following compounds gave an effect of at least 80% in at least one of the two categories (mortality or growth inhibition) at an application rate of 200 ppm: […]

In experiment [4] the test system is Spodoptera littoralis (Egyptian Cotton Leaf Worm). Description: Example B9: Spodoptera littoralis (Egyptian cotton leaf worm), cotton leaf discs sprayed, L1 larvae. To be noted: foliar, 72 h, application rate 200 ppm, 3 days after infestation. As for the experimental part:
Example B9: Spodoptera littoralis (Egyptian Cotton Leaf Worm)
Cotton leaf discs were placed onto agar in 24-well microtiter plates and sprayed with aqueous test solutions prepared from 10,000 ppm DMSO stock solutions. After drying the leaf discs were infested with five L1 larvae. The samples were assessed for mortality, anti-feeding effect, and growth inhibition in comparison to untreated samples 3 days after infestation. Control of Spodoptera littoralis by a test sample is given when at least one of the three categories (i.e. mortality, anti-feedant effect, and growth inhibition) is higher than the untreated sample.

Experiment [5] concerns Myzus persicae (Green Peach Aphid). Put plainly: Example B13: activity against Myzus persicae (green peach aphid), 96-well sucrose solution. The conditions noted are these: 120 h, application rate 50 ppm, 5 days after infestation. From the text:
Example B13: Activity Against Myzus persicae (Green Peach Aphid)
Test compounds prepared from 10,000 ppm DMSO stock solutions were applied by a liquid handling robot into 96-well microtiter plates and mixed with a sucrose solution. Parafilm was stretched over the 96-well microtiter plate and a plastic stencil with 96 holes was placed onto the plate. Aphids were sieved into the wells directly onto the Parafilm. The infested plates were closed with a gel blotting card and a second plastic stencil and then turned upside down. The samples were assessed for mortality 5 days after infestation.

`CC(c1ncnn1-c1ncccn1)N(CC1CC1)C(=O)c1cc(Cl)cc(C(C)(C)C#N)n1` (stereo not shown) [P28, 4-chloro-6-(1-cyano-1-methyl-ethyl)-N-(cyclopropylmethyl)-N-[1-(2-pyrimidin-2-yl-1,2,4-triazol-3-yl)ethyl]pyridine-2-carboxamide] showed a mortality at 500 ppm in experiment [1] of at least 80%.
With `CC(c1ncnn1-c1ncccn1)N(CC1CC1)C(=O)c1cc(OC2CCC2)cc(C(F)(F)F)c1` (stereo not shown) [P48, 3-(cyclobutoxy)-N-(cyclopropylmethyl)-N-[1-(2-pyrimidin-2-yl-1,2,4-triazol-3-yl)ethyl]-5-(trifluoromethyl)benzamide], the mortality at 500 ppm in experiment [1] was at least 80%.
In turn, `CC(c1ncnn1-c1ncccn1)N(CC1CC1)C(=O)c1cccc(-c2ccc(F)cc2)c1` (stereo not shown) [P4, N-(cyclopropylmethyl)-3-(4-fluorophenyl)-N-[1-(2-pyrimidin-2-yl-1,2,4-triazol-3-yl)ethyl]benzamide] had a mortality at 500 ppm in experiment [1] of at least 80%.
On to `CC(NC(=O)c1cc(OC(C)(C)C#N)cc(C(F)(F)F)c1)c1ncnn1-c1ncccn1` (stereo not shown) [P56, 3-(1-cyano-1-methyl-ethoxy)-N-[1-(2-pyrimidin-2-yl-1,2,4-triazol-3-yl)ethyl]-5-(trifluoromethyl)benzamide], for which the percent effect (mortality or growth inhibition) at 200 ppm in experiment [2] and in experiment [3] was at least 80% each time. This molecule registered a percent control (mortality, anti-feedant effect or growth inhibition) at 200 ppm in experiment [4] of at least 80%.
Regarding `CC(NC(=O)c1cc(-n2ccc(Cl)n2)nc(C(F)(F)F)c1)c1ncnn1-c1ncccn1` (stereo not shown) [P70, 2-(3-chloropyrazol-1-yl)-N-[1-(2-pyrimidin-2-yl-1,2,4-triazol-3-yl)ethyl]-6-(trifluoromethyl)pyridine-4-carboxamide], in experiment [3], the percent effect (mortality or growth inhibition) at 200 ppm was at least 80%. In experiment [4], this molecule came in with a percent control (mortality, anti-feedant effect or growth inhibition) at 200 ppm of at least 80%. The mortality at 500 ppm in experiment [1] is at least 80%.
In turn, `CC(c1ncnn1-c1ncccn1)N(CC1CC1)C(=O)c1ccc(C2(C#N)CC2)cc1` (stereo not shown) [P2, 4-(1-cyanocyclopropyl)-N-(cyclopropylmethyl)-N-[1-(2-pyrimidin-2-yl-1,2,4-triazol-3-yl)ethyl]benzamide] showed a mortality at 500 ppm in experiment [1] of at least 80%.
Consider `CC(c1ncnn1-c1ncccn1)N(CC1CC1)C(=O)c1cccc(-c2cccc(C(F)(F)F)c2)n1` (stereo not shown) [P15, N-(cyclopropylmethyl)-N-[1-(2-pyrimidin-2-yl-1,2,4-triazol-3-yl)ethyl]-6-[3-(trifluoromethyl)phenyl]pyridine-2-carboxamide], for which the percent effect (mortality or growth inhibition) at 200 ppm in experiment [3] was at least 80%. This molecule also had a mortality at 50 ppm in experiment [5] of at least 80%. Moreover, the mortality at 500 ppm in experiment [1] was at least 80%.
Turning to `CC(NC(=O)c1cc(-c2cncc(Cl)c2)cc(C(F)(F)F)c1)c1ncnn1-c1ncccn1` (stereo not shown) [P63, 3-(5-chloro-3-pyridyl)-N-[1-(2-pyrimidin-2-yl-1,2,4-triazol-3-yl)ethyl]-5-(trifluoromethyl)benzamide], the percent effect (mortality or growth inhibition) at 200 ppm in experiment [3] was at least 80%.
For the molecule `CC(c1ncnn1-c1ncccn1)N(CC1CC1)C(=O)c1cc(-c2ccc(F)cc2)cc(C(F)(F)F)c1` (stereo not shown) [P36, N-(cyclopropylmethyl)-3-(4-fluorophenyl)-N-[1-(2-pyrimidin-2-yl-1,2,4-triazol-3-yl)ethyl]-5-(trifluoromethyl)benzamide], the percent effect (mortality or growth inhibition) at 200 ppm in experiment [3] is at least 80%. In experiment [4], this molecule gave a percent control (mortality, anti-feedant effect or growth inhibition) at 200 ppm of at least 80%. This molecule returned a mortality at 500 ppm in experiment [1] of at least 80%.
`CC(c1ncnn1-c1ncccn1)N(CC1CC1)C(=O)c1ccc(Oc2ccc(C(F)(F)F)cc2)cc1` (stereo not shown) [P16, N-(cyclopropylmethyl)-N-[1-(2-pyrimidin-2-yl-1,2,4-triazol-3-yl)ethyl]-4-[4-(trifluoromethyl)phenoxy]benzamide]: the percent effect (mortality or growth inhibition) at 200 ppm in experiment [2] is at least 80%.
Turning to `CC(c1ncnn1-c1ncccn1)N(CC1CC1)C(=O)c1ccc(-n2ccc(C(F)(F)F)n2)cc1` (stereo not shown) [P1, N-(cyclopropylmethyl)-N-[1-(2-pyrimidin-2-yl-1,2,4-triazol-3-yl)ethyl]-4-[3-(trifluoromethyl)pyrazol-1-yl]benzamide], the mortality at 500 ppm in experiment [1] was at least 80%.
For `CC(c1ncnn1-c1ncccn1)N(CC1CC1)C(=O)c1cc(N2CC(F)(F)C2)cc(C(F)(F)F)c1` (stereo not shown) [P20, N-(cyclopropylmethyl)-3-(3,3-difluoroazetidin-1-yl)-N-[1-(2-pyrimidin-2-yl-1,2,4-triazol-3-yl)ethyl]-5-(trifluoromethyl)benzamide], in experiment [5], the mortality at 50 ppm was at least 80%. In experiment [1], the mortality at 500 ppm was at least 80%.
As for `CC(c1ncnn1-c1ncccn1)N(CC1CC1)C(=O)c1cc(-c2cccc(C(F)(F)F)c2)ccn1` (stereo not shown) [P9, N-(cyclopropylmethyl)-N-[1-(2-pyrimidin-2-yl-1,2,4-triazol-3-yl)ethyl]-4-[3-(trifluoromethyl)phenyl]pyridine-2-carboxamide], the percent effect (mortality or growth inhibition) at 200 ppm in experiment [3] is at least 80%. For the same molecule, the mortality at 500 ppm in experiment [1] was at least 80%.
As to `CC(c1ncnn1-c1ncccn1)N(CC1CC1)C(=O)c1cncc(-c2cccc(C(F)(F)F)c2)c1` (stereo not shown) [P8, N-(cyclopropylmethyl)-N-[1-(2-pyrimidin-2-yl-1,2,4-triazol-3-yl)ethyl]-5-[3-(trifluoromethyl)phenyl]pyridine-3-carboxamide], the percent effect (mortality or growth inhibition) at 200 ppm in experiment [3] is at least 80%.
Turning to `CC(c1ncnn1-c1ncccn1)N(CC1CC1)C(=O)c1cccc(-c2ccc(C(F)(F)F)cc2)c1` (stereo not shown) [P3, N-(cyclopropylmethyl)-N-[1-(2-pyrimidin-2-yl-1,2,4-triazol-3-yl)ethyl]-3-[4-(trifluoromethyl)phenyl)benzamide], the percent effect (mortality or growth inhibition) at 200 ppm in experiment [3] is at least 80%. The same molecule registered a mortality at 500 ppm in experiment [1] of at least 80%.
As for `CC(c1ncnn1-c1ncccn1)N(CC1CC1)C(=O)c1ccc(-c2ccc(F)cc2)cc1` (stereo not shown) [P5, N-(cyclopropylmethyl)-4-(4-fluorophenyl)-N-[1-(2-pyrimidin-2-yl-1,2,4-triazol-3-yl)ethyl]benzamide], the percent effect (mortality or growth inhibition) at 200 ppm in experiment [3] was at least 80%. Further, in experiment [1], the mortality at 500 ppm is at least 80%.
Molecule `CC(c1ncnn1-c1ncccn1)N(CC1CC1)C(=O)c1cnc(C2CC2)nc1` (stereo not shown) [P11, 2-cyclopropyl-N-(cyclopropylmethyl)-N-[1-(2-pyrimidin-2-yl-1,2,4-triazol-3-yl)ethyl]pyrimidine-5-carboxamide] returned a mortality at 50 ppm in experiment [5] of at least 80%.
`CC(c1ncnn1-c1ncccn1)N(CC1CC1)C(=O)c1cc(OCC2CC2)cc(C(F)(F)F)c1` (stereo not shown) [P47, 3-(cyclopropylmethoxy)-N-(cyclopropylmethyl)-N-[1-(2-pyrimidin-2-yl-1,2,4-triazol-3-yl)ethyl]-5-(trifluoromethyl)benzamide]: the percent effect (mortality or growth inhibition) at 200 ppm in experiment [3] was at least 80%. In experiment [5], this molecule registered a mortality at 50 ppm of at least 80%. In experiment [1], this molecule registered a mortality at 500 ppm of at least 80%.
As for `CC(c1ncnn1-c1ncccn1)N(CC1CC1)C(=O)c1cc(C(F)(F)F)cc(C2(C)CC2)c1` (stereo not shown) [P38, N-(cyclopropylmethyl)-3-(1-methylcyclopropyl)-N-[1-(2-pyrimidin-2-yl-1,2,4-triazol-3-yl)ethyl]-5-(trifluoromethyl)benzamide], the percent effect (mortality or growth inhibition) at 200 ppm in experiment [3] was at least 80%. In experiment [1], this molecule had a mortality at 500 ppm of at least 80%.
`CC(c1ncnn1-c1ncccn1)N(CC1CC1)C(=O)c1ccc(-n2ccccc2=O)cc1` (stereo not shown) [P18, N-(cyclopropylmethyl)-4-(2-oxo-1-pyridyl)-N-[1-(2-pyrimidin-2-yl-1,2,4-triazol-3-yl)ethyl]benzamide]: in experiment [5], the mortality at 50 ppm was at least 80%.
Take `CC(c1ncnn1-c1ncccn1)N(CC1CC1)C(=O)c1cc(C(F)(F)F)cc(C(F)(F)C2CCC2)c1` (stereo not shown) [P71, 3-[cyclobutyl(difluoro)methyl]-N-(cyclopropylmethyl)-N-[1-(2-pyrimidin-2-yl-1,2,4-triazol-3-yl)ethyl]-5-(trifluoromethyl)benzamide]: the mortality at 500 ppm in experiment [1] is at least 80%.
On to `CC(c1ncnn1-c1ncccn1)N(CC1CC1)C(=O)c1ccc(N2CCCCC2=O)cc1` (stereo not shown) [P17, N-(cyclopropylmethyl)-4-(2-oxo-1-piperidyl)-N-[1-(2-pyrimidin-2-yl-1,2,4-triazol-3-yl)ethyl]benzamide], for which the mortality at 50 ppm in experiment [5] is at least 80%.

A word on the mortality: it is the percentage killed.

The values are drawn from patent US20210267203A1, “PESTICIDALLY ACTIVE AZOLE-AMIDE COMPOUNDS” (SYNGENTA PARTICIPATIONS AG, priority 2018, published 2021).
